Source: patent publication US9730956B2 (priority 2014, dated 2017)

What was measured:
T. mentagrophytes = experiment: NORS antifungal effect on mycelial viability; type: cell-based, Trichophyton mentagrophytes; conditions: 30 minute exposure; 0.14% sodium nitrite (pH 6) or citric acid at pH 3.7 alone
T. rubrum = experiment: NORS antifungal effect on mycelial viability; type: cell-based, Trichophyton rubrum; conditions: 30 minute exposure; 0.14% sodium nitrite (pH 6) or citric acid at pH 3.7 alone

## O=C(O)CC(O)(CC(=O)O)C(=O)O [citric acid]
T. mentagrophytes
  effect of single NORS component on mycelial viability: Minimal to no effect
T. rubrum
  effect of single NORS component on mycelial viability: Minimal to no effect

## O=NO [sodium nitrite]
T. mentagrophytes
  effect of single NORS component on mycelial viability: Minimal to no effect
T. rubrum
  effect of single NORS component on mycelial viability: Minimal to no effect
